We go through four compounds from patent US8361507B2, “Eprosartan mesylate crystalline particles and a process for preparing pure eprosartan” (Hetero Drugs Limited, priority 2007, dated 2013).

A short description of series [1]: Specific surface area by Brunauer-Emmett-Teller (B.E.T.) nitrogen absorption. It is filed as physicochemical. The following applies: B.E.T. method, crystalline particles. The text has this:
Specific surface area is defined in units of square meters per gram (m^2/g). It is usually measured by nitrogen absorption analysis. In this analysis, nitrogen is absorbed on the surface of the substance. The amount of the absorbed nitrogen (as measured during the absorption or the subsequent desorption process) is related to the surface area via a formula known as the B.E.T. formula.

A short description of series [2]: Particle size distribution by laser diffraction (Sympatec Helos). The series is classed as physicochemical. As to conditions: crystalline particles. The text has this:
As used herein “Particle Size Distribution (P.S.D.)” means the cumulative volume size distribution of equivalent spherical diameters as determined by laser diffraction at 1 bar dispersive pressure in a Sympatec Helos equipment. “Mean particle size distribution, i.e., d(0.5)” correspondingly, means the median of said particle size distribution.

The conditions of series [3]: crystalline particles disclosed in WO 00/53282; cited from earlier work.
The conditions of series [4]: cited from earlier work.

Where a name gives a salt, the structure may show the parent alone.

Consider `CCCCc1ncc(/C=C(\Cc2cccs2)C(=O)O)n1Cc1ccc(C(=O)O)cc1` [Example 2, eprosartan mesylate], for which the “Specific Surface Area” value in series [1] is listed as 1.09 m^2/g. Besides, in series [2], the “90 volume-% of the particles (D90)” value is reported as 33.48 μm and the “Mean particle size (D50)” value came to 12.13 μm.

For the compound `CCCCc1ncc(/C=C(\Cc2cccs2)C(=O)O)n1Cc1ccc(C(=O)O)cc1` [Example 4, eprosartan mesylate], the “Specific Surface Area” value in series [1] came to 1.11 m^2/g. In series [2], the “90 volume-% of the particles (D90)” value came to 30.42 μm and the “Mean particle size (D50)” value is given as 11.23 μm.

Regarding `CCCCc1ncc(/C=C(\Cc2cccs2)C(=O)O)n1Cc1ccc(C(=O)O)cc1` [Reference Example 3, eprosartan mesylate], in series [1], the “Specific Surface Area” value was found to be 0.53 m^2/g. Besides, in series [2], the “90 volume-% of the particles (D90)” value is on record as 213.72 μm and the “Mean particle size (D50)” value amounted to 70.56 μm.

In the case of `CCCCc1ncc(/C=C(\Cc2cccs2)C(=O)O)n1Cc1ccc(C(=O)O)cc1` [eprosartan mesylate, (αE)-α-[[2-n-Butyl-1-[(4-carboxyphenyl)methyl]-1H-imidazol-5-yl]methylene-2-thiophenepropanoic acid monomethanesulfonate], the “Specific Surface Area” value in series [1] is reported as “below 0.6 m^2/g”. Also, in series [3], the d90 value result is listed as “less than 10 micron”. Besides, the solubility in methanol result in series [4] (methanol) is on record as “soluble”. The solubility in water entry in series [4] (water) is on record as “practically insoluble”.
